# Species: Rattus norvegicus
# Assay: DrugMatrix - Regimen: Daily Repeat
# Assay type: toxicity, organism-based, Sprague-Dawley
# Design: regimen Daily Repeat, gender Male, age 6-8 weeks
# Conditions: in vivo, po, route oral GAVAGE, vehicle .5 % CMC; for ABSOLUTE BASOPHIL / ABSOLUTE EOSINOPHIL / ABSOLUTE LYMPHOCYTE / ABSOLUTE MONOCYTE / ABSOLUTE SEGMENTED NEUTROPHIL / BASOPHIL / EOSINOPHIL / ERYTHROCYTE COUNT / HEMATOCRIT / HEMOGLOBIN / LEUKOCYTE COUNT / LYMPHOCYTE / MEAN CORPUSCULAR HEMOGLOBIN / MEAN CORPUSCULAR HEMOGLOBIN CONCENTRATION / MEAN CORPUSCULAR VOLUME / MONOCYTE / NEUTROPHIL / NUCLEATED RED BLOOD CELLS / PLATELET COUNT: tissue Blood; for ALANINE AMINOTRANSFERASE / ALBUMIN / ALKALINE PHOSPHATASE / ASPARTATE AMINOTRANSFERASE / BLOOD UREA NITROGEN / CARBON DIOXIDE / CHLORIDE / CHOLESTEROL / CREATINE PHOSPHOKINASE / CREATININE / GLUCOSE / LACTATE DEHYDROGENASE / LIPASE / PHOSPHORUS / POTASSIUM / SODIUM / TOTAL BILIRUBIN / TOTAL PROTEIN / URIC ACID: tissue Plasma
# [1] = 50 mg/kg, 120 h, dose level Low, time 5 day
# [2] = 2500 mg/kg, 72 h, dose level High, time 3 day
# [3] = 2500 mg/kg, 120 h, dose level High, time 5 day
smiles,measurement,setting,value
CC(/C=C1\SC(=S)N(CC(=O)O)C1=O)=C\c1ccccc1,ABSOLUTE BASOPHIL,[1],0 CELLS/uL
same,ABSOLUTE EOSINOPHIL,[1],0 CELLS/uL
same,ABSOLUTE LYMPHOCYTE,[1],8755.33 CELLS/uL
same,ABSOLUTE MONOCYTE,[1],98 CELLS/uL
same,ABSOLUTE SEGMENTED NEUTROPHIL,[1],946.67 CELLS/uL
same,BASOPHIL,[1],0%
same,EOSINOPHIL,[1],0%
same,ERYTHROCYTE COUNT,[1],5.47 x10E6/uL
same,HEMATOCRIT,[1],34.63%
same,HEMOGLOBIN,[1],14.03 G/DL
same,LEUKOCYTE COUNT,[1],9.8 x10E3/uL
same,LYMPHOCYTE,[1],89.67%
same,MEAN CORPUSCULAR HEMOGLOBIN,[1],25.7 pg
same,MEAN CORPUSCULAR HEMOGLOBIN CONCENTRATION,[1],40.53 G/DL
same,MEAN CORPUSCULAR VOLUME,[1],63.33 fL
same,MONOCYTE,[1],1%
same,NEUTROPHIL,[1],9.33%
same,NUCLEATED RED BLOOD CELLS,[1],0 /100WBC
same,PLATELET COUNT,[1],1226 x10E3/uL
same,ALANINE AMINOTRANSFERASE,[1],61.33 u/L
same,ALBUMIN,[1],4.5 G/DL
same,ALKALINE PHOSPHATASE,[1],418.33 u/L
same,ASPARTATE AMINOTRANSFERASE,[1],81.33 u/L
same,BLOOD UREA NITROGEN,[1],14.33 mg/dL
same,CARBON DIOXIDE,[1],34 mmol/L
same,CHLORIDE,[1],100.67 MEQ/L
same,CHOLESTEROL,[1],81 mg/dL
same,CREATINE PHOSPHOKINASE,[1],171 u/L
same,CREATININE,[1],0.12 mg/dL
same,GLUCOSE,[1],147.33 mg/dL
same,LACTATE DEHYDROGENASE,[1],106.67 u/L
same,LIPASE,[1],10 u/L
same,PHOSPHORUS,[1],10.83 mg/dL
same,POTASSIUM,[1],6.07 MEQ/L
same,SODIUM,[1],143.73 MEQ/L
same,TOTAL BILIRUBIN,[1],0.2 mg/dL
same,TOTAL PROTEIN,[1],6.37 G/DL
same,URIC ACID,[1],0.87 mg/dL
same,ABSOLUTE BASOPHIL,[2],0 CELLS/uL
same,ABSOLUTE EOSINOPHIL,[2],58.67 CELLS/uL
same,ABSOLUTE LYMPHOCYTE,[2],8116.67 CELLS/uL
same,ABSOLUTE MONOCYTE,[2],158 CELLS/uL
same,ABSOLUTE SEGMENTED NEUTROPHIL,[2],700 CELLS/uL
same,BASOPHIL,[2],0%
same,EOSINOPHIL,[2],0.67%
same,ERYTHROCYTE COUNT,[2],6.27 x10E6/uL
same,HEMATOCRIT,[2],39%
same,HEMOGLOBIN,[2],15.47 G/DL
same,LEUKOCYTE COUNT,[2],9.03 x10E3/uL
same,LYMPHOCYTE,[2],90%
same,MEAN CORPUSCULAR HEMOGLOBIN,[2],24.83 pg
same,MEAN CORPUSCULAR HEMOGLOBIN CONCENTRATION,[2],39.77 G/DL
same,MEAN CORPUSCULAR VOLUME,[2],62.43 fL
same,MONOCYTE,[2],1.67%
same,NEUTROPHIL,[2],7.67%
same,NUCLEATED RED BLOOD CELLS,[2],0 /100WBC
same,PLATELET COUNT,[2],1417 x10E3/uL
same,ALANINE AMINOTRANSFERASE,[2],61.33 u/L
same,ALBUMIN,[2],3.93 G/DL
same,ALKALINE PHOSPHATASE,[2],381 u/L
same,ASPARTATE AMINOTRANSFERASE,[2],133.33 u/L
same,BLOOD UREA NITROGEN,[2],25 mg/dL
same,CARBON DIOXIDE,[2],19 mmol/L
same,CHLORIDE,[2],105.33 MEQ/L
same,CHOLESTEROL,[2],46 mg/dL
same,CREATINE PHOSPHOKINASE,[2],544.33 u/L
same,CREATININE,[2],0.22 mg/dL
same,GLUCOSE,[2],130.33 mg/dL
same,LACTATE DEHYDROGENASE,[2],248.67 u/L
same,LIPASE,[2],9.33 u/L
same,PHOSPHORUS,[2],11.67 mg/dL
same,POTASSIUM,[2],5.57 MEQ/L
same,SODIUM,[2],142.23 MEQ/L
same,TOTAL BILIRUBIN,[2],0.27 mg/dL
same,TOTAL PROTEIN,[2],5.4 G/DL
same,URIC ACID,[2],1.83 mg/dL
same,ABSOLUTE BASOPHIL,[3],0 CELLS/uL
same,ABSOLUTE EOSINOPHIL,[3],0 CELLS/uL
same,ABSOLUTE LYMPHOCYTE,[3],3825 CELLS/uL
same,ABSOLUTE MONOCYTE,[3],102 CELLS/uL
same,ABSOLUTE SEGMENTED NEUTROPHIL,[3],1173 CELLS/uL
same,BASOPHIL,[3],0%
same,EOSINOPHIL,[3],0%
same,ERYTHROCYTE COUNT,[3],7.26 x10E6/uL
same,HEMATOCRIT,[3],41.8%
same,HEMOGLOBIN,[3],16.5 G/DL
same,LEUKOCYTE COUNT,[3],5.1 x10E3/uL
same,LYMPHOCYTE,[3],75%
same,MEAN CORPUSCULAR HEMOGLOBIN,[3],22.7 pg
same,MEAN CORPUSCULAR HEMOGLOBIN CONCENTRATION,[3],39.5 G/DL
same,MEAN CORPUSCULAR VOLUME,[3],57.6 fL
same,MONOCYTE,[3],2%
same,NEUTROPHIL,[3],23%
same,NUCLEATED RED BLOOD CELLS,[3],0 /100WBC
same,PLATELET COUNT,[3],1575 x10E3/uL
same,ALANINE AMINOTRANSFERASE,[3],38 u/L
same,ALBUMIN,[3],3.9 G/DL
same,ALKALINE PHOSPHATASE,[3],162 u/L
same,ASPARTATE AMINOTRANSFERASE,[3],70 u/L
same,BLOOD UREA NITROGEN,[3],24 mg/dL
same,CARBON DIOXIDE,[3],25 mmol/L
same,CHLORIDE,[3],100 MEQ/L
same,CHOLESTEROL,[3],64 mg/dL
same,CREATINE PHOSPHOKINASE,[3],119 u/L
same,CREATININE,[3],0.1 mg/dL
same,GLUCOSE,[3],89 mg/dL
same,LACTATE DEHYDROGENASE,[3],148 u/L
same,LIPASE,[3],7 u/L
same,PHOSPHORUS,[3],15.2 mg/dL
same,POTASSIUM,[3],4.09 MEQ/L
same,SODIUM,[3],144.1 MEQ/L
same,TOTAL BILIRUBIN,[3],0.5 mg/dL
same,TOTAL PROTEIN,[3],5.9 G/DL
same,URIC ACID,[3],2.1 mg/dL

# — ChEMBL document CHEMBL3885881, “DrugMatrix”
